In article PMC7072352, “Venetoclax, a BCL-2 Inhibitor, Enhances the Efficacy of Chemotherapeutic Agents in Wild-Type ABCG2-Overexpression-Mediated MDR Cancer Cells” (Cancers, 2020):

Target: T1, ABCG2 (breast cancer resistance protein, BCRP) (Homo sapiens, UniProt Q9UNQ0)
T1 construct: wild-type ABCG2 (R482) in overexpressing cell membranes
T1 sequence (Q9UNQ0 1-655): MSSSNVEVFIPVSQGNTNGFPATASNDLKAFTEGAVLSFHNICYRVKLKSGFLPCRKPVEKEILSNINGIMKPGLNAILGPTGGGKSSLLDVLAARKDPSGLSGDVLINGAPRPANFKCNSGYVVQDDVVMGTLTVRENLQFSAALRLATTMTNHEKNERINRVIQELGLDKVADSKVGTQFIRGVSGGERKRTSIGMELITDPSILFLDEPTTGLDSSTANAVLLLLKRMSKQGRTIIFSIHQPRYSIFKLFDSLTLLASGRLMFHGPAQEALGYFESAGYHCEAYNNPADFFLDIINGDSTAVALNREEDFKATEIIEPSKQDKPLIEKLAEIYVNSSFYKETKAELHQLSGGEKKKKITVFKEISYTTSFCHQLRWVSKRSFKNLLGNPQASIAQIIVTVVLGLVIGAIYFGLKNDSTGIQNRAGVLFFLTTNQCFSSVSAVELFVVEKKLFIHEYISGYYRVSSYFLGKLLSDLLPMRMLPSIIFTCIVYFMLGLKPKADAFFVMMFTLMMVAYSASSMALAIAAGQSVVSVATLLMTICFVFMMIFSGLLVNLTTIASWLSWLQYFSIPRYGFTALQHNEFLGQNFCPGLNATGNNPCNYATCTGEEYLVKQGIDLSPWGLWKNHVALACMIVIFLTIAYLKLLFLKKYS
Test: vanadate-sensitive ATPase assay in ABCG2-overexpressing cell membranes; [3H]-mitoxantrone accumulation and efflux in cells
Type: biochemical

## CC1(C)CCC(CN2CCN(c3ccc(C(=O)NS(=O)(=O)c4ccc(NCC5CCOCC5)c([N+](=O)[O-])c4)c(Oc4cnc5[nH]ccc5c4)c3)CC2)=C(c2ccc(Cl)cc2)C1 [venetoclax]
  IC50: 4.78 µM
